Source: patent publication US9012446B2, “Amino-oxazines and amino-dihydrothiazine compounds as beta-secretase modulators and methods of use” (Amgen Inc., priority 2010, dated 2015)
Read-outs that look alike come from different tables or passages of the source.

Tests used:
[1] = test system: Aβ40; assay: In vitro BACE cell-based assay (Aβ40 sandwich ELISA, cells stably expressing APP); conditions: Homo sapiens
Method in brief: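 APP-stably-expressing cells, grown 24 h in DMEM/10% FBS, received 10-point compound doses starting at 100 μM or 10 μM (0.1% DMSO final). Secreted Aβ40 in supernatants measured by sandwich ELISA with time-resolved europium fluorescence; IC50 from percent inhibition versus concentration.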

[2] = biological target: BACE (Homo sapiens, UniProt P56817); assay: In vitro enzymatic BACE FRET assay; format: biochemical; conditions: average IC50, enzyme assay; read-out: BACE 1 FRET assay
Method in brief: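 BACE (0.2 nM) preincubated 1 h with serially diluted inhibitors in 0.05 M acetate pH 4.2, 10% DMSO, 100 uM genapol. FRET peptide substrate (50 nM) added, 1 h incubation, then stopped with Tris to neutral pH. Fluorescence from cleavage read at […].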

[3] = test system: Abeta 40; assay: In vivo inhibition of beta-secretase: Abeta 40 reduction in CSF and brain of the rat; conditions: 10 mpk, after 4 hrs
From the text: In Vivo Inhibition of Beta-Secretase
Several animal models, including mouse, rat, dog, and monkey, may be used to screen for inhibition of beta-secretase activity in vivo following administration of a test compound sample. Animals used in this invention can be wild type, transgenic, or gene knockout animals. For example, the Tg2576 mouse model, prepared and conducted as described in Hsiao et al., 1996, Science 274, 99-102, and other non-transgenic or gene knockout animals are useful to analyze in vivo inhibition of Amyloid beta peptide (Abeta) production in the presence of inhibitory test compounds. Generally, 2 to 18 month old Tg2576 mice, gene knockout mice or non-transgenic animals are administered test compounds formulated in vehicles, such as cyclodextran, phosphate buffers, hydroxypropyl methylcellulose or other suitable vehicles. One to twenty-four hours following the administration of compound, animals are sacrificed, and brains as well as cerebrospinal fluid (CSF) and plasma are removed for analysis of A-beta levels and drug or test compound concentrations (Dovey et al., 2001, Journal of Neurochemistry, 76,173-181) Beginning at time 0, animals are administered by oral gavage, or other means of delivery such as intravenous injection, an inhibitory test compound of up to 100 mg/kg in a standard, conventional formulation, such as 2% hydroxypropyl methylcellulose, 1% Tween80. A separate group of animals receive 2% hydroxypropyl methylcellulose, 1% Tween80 alone, containing no test compound, and serve as a vehicle-control group. At the end of the test period, animals are sacrificed and brain tissues, plasma or cerebrospinal fluid are collected. Brains are either homogenized in 10 volumes (w/v) of 0.2% diethylamine (DEA) in 50 mM NaCl (Best et al., 2005, Journal of Pharmacology and Experimental Therapeutics, 313, 902-908), or in 10 volumes of 0.5% TritonX-100 in Tris-buffered saline (pH at about 7.6). Homogenates are centrifuged at 355,000 g, 4° C. for 30 minutes. CSF or brain supernatants are then analyzed for the presence of A-beta peptide by specific sandwich ELISA assays based on ECL (Electrochemiluminescence) technology. For example, rat Abeta40 is measured using biotinylated-4G8 (Signet) as a capture antibody and Fab40 (an in-house antibody specific to the C-terminal of Abeta40) as a detection antibody. For example, 4 hours after administration of 30 mg/kg oral dose of the test compound in 2% hydroxypropyl methylcellulose, 1% Tween80 (pH2.2) to 200 g male Sprague Dawley rats, amyloid beta peptide levels are measured for reduction by X % and Y % in cerebrospinal fluid and brain, respectively, when compared to the levels measured in the vehicle-treated rats. • Actual vehicles used: Oral: 2% HPMC, 1% Tween80, pH 2.2 • IV: 5% EtOH, 45% Propylene glycol in 5% Dextrose
The compounds of the invention may be shown to reduce the formation and/or deposition of amyloid beta peptide in the cerebrospinal fluid (CSF) as well as in the brain of a mouse or rat at either 3 mpk, 10 mpk or 30 mpk (mpk=mg compound per kg weight of the animal) dosing concentrations after 4 hrs.

[4] = HEK293, average IC50, read-out: HEK cell assay
[5] = Abeta 40, rat CSF, read-out: % reduction of rat CSF levels at 10 pmk
[6] = Abeta 40, rat brain, read-out: % reduction of rat brain levels at 10 mpk
[7] = HEK293, average IC50, cell assay, HEK cells

BACE, sequence (P56817 46-501, species assumed): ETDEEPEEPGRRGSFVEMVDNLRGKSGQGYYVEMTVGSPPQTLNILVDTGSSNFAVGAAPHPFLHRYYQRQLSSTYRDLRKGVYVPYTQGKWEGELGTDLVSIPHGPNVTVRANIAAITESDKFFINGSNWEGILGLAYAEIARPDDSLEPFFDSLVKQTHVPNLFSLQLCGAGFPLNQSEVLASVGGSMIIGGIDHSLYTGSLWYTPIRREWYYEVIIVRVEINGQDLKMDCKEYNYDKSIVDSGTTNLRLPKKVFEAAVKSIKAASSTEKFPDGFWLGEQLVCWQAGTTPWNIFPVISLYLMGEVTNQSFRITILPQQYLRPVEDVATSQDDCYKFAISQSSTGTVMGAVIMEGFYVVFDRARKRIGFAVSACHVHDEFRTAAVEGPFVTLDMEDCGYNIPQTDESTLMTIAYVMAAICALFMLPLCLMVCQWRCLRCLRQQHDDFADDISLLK

SMILES	IC50 [1, 4]	IC50 [2]	inhibition in vivo at 10 mg/kg [3, 5]	inhibition in vivo at 10 mg/kg [3, 6]	IC50 [1, 7]
CC1(C#Cc2cc(F)c3c(c2)[C@]2(CCOC(N)=N2)c2cc(-c4cccnc4F)ccc2O3)COC1 [Example 17A, (S)-4′-fluoro-7′-(2-fluoropyridin-3-yl)-2′-((3-methyloxetan-3-yl)ethynyl)-5,6-dihydrospiro[[1,3]oxazine-4,9′-xanthen]-2-amine]	2.6 nM	3.3 nM	44%	37%	
NC1=N[C@@]2(COC1)c1cc(-c3cccnc3F)ccc1Oc1cnc(-c3ccnc(F)c3)cc12 [Example 30, (S)-7-(2-fluoropyridin-3-yl)-3-(2-fluoropyridin-4-yl)-2′,6′-dihydrospiro[chromeno[2,3-c]pyridine-5,3′-[1,4]oxazin]-5′-amine]		0.3 nM	67%	62%	1.7 nM
NC1=N[C@@]2(COC1)c1cc(-c3cccnc3F)ccc1Oc1cnc(N3CCC(F)(F)CC3)cc12 [Example 32, (S)-3-(4,4-difluoropiperidin-1-yl)-7-(2-fluoropyridin-3-yl)-2′,6′-dihydrospiro[chromeno[2,3-c]pyridine-5,3′-[1,4]oxazin]-5′-amine]		0.6 nM	37%	26%	1.2 nM
CC(C)(C)COc1cc2c(cn1)Oc1ccc(-c3cccnc3F)cc1[C@@]21COCC(N)=N1 [Example 33, (S)-7-(2-fluoropyridin-3-yl)-3-(neopentyloxy)-2′,6′-dihydrospiro[chromeno[2,3-c]pyridine-5,3′-[1,4]oxazin]-5′-amine]		0.4 nM	61%	48%	1.1 nM
NC1=N[C@@]2(COC1)c1cc(-c3cccnc3F)ccc1Oc1c(F)cc(-c3ccnc(F)c3)cc12 [Example 36A, (S)-4′-fluoro-7′-(2-fluoropyridin-3-yl)-2′-(2-fluoropyridin-4-yl)-2,6-dihydrospiro[[1,4]oxazine-3,9′-xanthen]-5-amine]		0.4 nM	26%	25%	2.9 nM
CC(C)(F)COc1cc(F)c2c(c1)[C@]1(COCC(N)=N1)c1cc(-c3cccnc3F)ccc1O2 [Example 37A, (S)-4′-fluoro-2′-(2-fluoro-2-methylpropoxy)-7′-(2-fluoropyridin-3-yl)-2,6-dihydrospiro[[1,4]oxazine-3,9′-xanthen]-5-amine]		0.2 nM	44%	39%	1.3 nM
NC1=N[C@@]2(COC1)c1cc(-c3cccnc3F)ccc1Oc1c(F)cc(C3=CCOCC3)cc12 [Example 40, (S)-2′-(3,6-dihydro-2H-pyran-4-yl)-4′-fluoro-7′-(2-fluoropyridin-3-yl)-2,6-dihydrospiro[[1,4]oxazine-3,9′-xanthen]-5-amine]		0.3 nM	33%	15%	3 nM
CC1(C#Cc2cc(F)c3c(c2)[C@]2(COCC(N)=N2)c2cc(-c4cccnc4F)ccc2O3)COC1 [Example 41, (S)-4′-fluoro-7′-(2-fluoropyridin-3-yl)-2′-((3-methyloxetan-3-yl)ethynyl)-2,6-dihydrospiro[[1,4]oxazine-3,9′-xanthen]-5-amine]		0.5 nM	13%	23%	1.9 nM
CC(C)(C)COc1cnc2c(c1)[C@]1(COCC(N)=N1)c1cc(-c3cccnc3F)ccc1O2 [Example 55, (S)-7-(2-fluoropyridin-3-yl)-3-(neopentyloxy)-2′,6′-dihydrospiro[chromeno[2,3-b]pyridine-5,3′-[1,4]oxazin]-5′-amine]	0.4 nM	0.8 nM	65%	51%	
NC1=N[C@@]2(CCO1)c1cc(-c3cccnc3F)ccc1Oc1ncc(-c3ccnc(F)c3)cc12 [Example 60, (S)-7-(2-fluoropyridin-3-yl)-3-(2-fluoropyridin-4-yl)-5′,6′-dihydrospiro[chromeno[2,3-b]pyridine-5,4′-[1,3]oxazin]-2′-amine]	11 nM	12.2 nM	56%	25%	
CC1(C#Cc2cnc3c(c2)[C@]2(CCOC(N)=N2)c2cc(-c4cccnc4F)ccc2O3)COC1 [Example 61, (S)-7-(2-fluoropyridin-3-yl)-3-((3-methyloxetan-3-yl)ethynyl)-5′,6′-dihydrospiro[chromeno[2,3-b]pyridine-5,4′-[1,3]oxazin]-2′-amine]	2.4 nM	2.8 nM	70%	55%	
NC1=N[C@@]2(COC1)c1cc(-c3cccnc3)ccc1Oc1c(F)cc(C3=CCCOC3)cc12 [Example 63, (S)-2′-(5,6-dihydro-2H-pyran-3-yl)-4′-fluoro-7′-(pyridin-3-yl)-2,6-dihydrospiro[[1,4]oxazine-3,9′-xanthen]-5-amine]		0.3 nM	19%	16%	0.5 nM
NC1=N[C@]2(COC1)c1cc(C3=CCOCC3)ccc1Oc1ccc(-c3cccnc3F)cc12 [Example 64, (R)-2′-(3,6-dihydro-2H-pyran-4-yl)-7′-(2-fluoropyridin-3-yl)-2,6-dihydrospiro[[1,4]oxazine-3,9′-xanthen]-5-amine]		0.6 nM	8%	4%	5.2 nM
NC1=N[C@]2(COC1)c1cc(-c3ccnc(F)c3)ccc1Oc1ccc(-c3cccnc3F)cc12 [Example 65, (R)-2′-(2-fluoropyridin-3-yl)-7′-(2-fluoropyridin-4-yl)-2,6-dihydrospiro[[1,4]oxazine-3,9′-xanthen]-5-amine]		1.6 nM	14%	55%	18.2 nM
NC1=N[C@@]2(COC1)c1cc(-c3cccnc3F)ccc1Oc1cnc(-c3ccc(F)c(F)c3)cc12 [Example 73, (5S)-3-(3,4-difluorophenyl)-7-(2-fluoro-3-pyridinyl)-6′H-spiro[chromeno[2,3-c]pyridine-5,3′-[1,4]oxazin]-5′-amine]		0.3 nM	62%	42%	2.7 nM
NC1=N[C@@]2(COC1)c1cc(-c3cccnc3F)ccc1Oc1cnc(N3CCC(F)(F)C3)cc12 [Example 74, (5S)-3-(3,3-difluoro-1-pyrrolidinyl)-7-(2-fluoro-3-pyridinyl)-6′H-spiro[chromeno[2,3-c]pyridine-5,3′-[1,4]oxazin]-5′-amine]		0.4 nM	47%	26%	0.8 nM
NC1=N[C@@]2(COC1)c1cc(-c3cccnc3F)ccc1Oc1c(F)cc(N3CCC(F)(F)CC3)cc12 [Example 86, (S)-2′-(4,4-difluoropiperidin-1-yl)-4′-fluoro-7′-(2-fluoropyridin-3-yl)-2,6-dihydrospiro[[1,4]oxazine-3,9′-xanthen]-5-amine]			12%	11%	2.6 nM
